Experiment [1] has as its system MDA-MB-231 human mammary carcinoma cell line. The experiment can be described thus: Inhibition of colony formation (dose-survival relation, Example 18). Type of experiment: cell-based. On the procedure:
(§1) In the case of cytostatics the cell-damaging effect is not cell-specific. […] One part of the arrested cells again go into the cycle, the other part may perish (apoptosis). […] The investigations were carried out on MCF-7 and MDA-MB-231 human mammary carcinoma cell lines, PC3 human prostate 15 carcinoma cell line and Ishikawa human endometrium carcinoma cell line. Three hundred cells were set into Petri dishes of 3.5 cm in diameter each. The treatment was carried out once, 24 hours following the explantation, then the colonies formed were counted after 9 to 12 days.

Experiment [2] concerns PC3 human prostate carcinoma cell line. The experiment is described as above. In kind it is cell-based. On the procedure: as §1
Experiment [3] concerns MCF-7 human mammary carcinoma cell line. The description is as above. Type of experiment: cell-based. As to conditions: for % Inhibition of colony formation: treated once. On the procedure: as §1
Experiment [4] relates to Ishikawa human endometrium carcinoma cell line. Described as above. Type of experiment: cell-based. On the procedure:
as §1

The subject of experiment [5] is MDA-MB-231. The experiment can be described thus: Inhibition of colony formation by GnRH analogues (dose-survival, Example 48). In kind it is cell-based, human. On the procedure: (§2) The examination gives accurate information about the cell-damaging effect of the substance tested as a function of varying doses. The treatment was carried out once; the colonies formed from the surviving cells were counted after 8 - 12 days. […] A part of the arrested cells again entered the cycle, another part of them might be destroyed (apoptosis). […] In the case of a dose-response investigation, colonies containing less than 15 cells were not counted. 300 cells were put into each Petri dishes of 3.5 cm in diameter. The treatment was once carried out 24 hours after setting, then the colonies formed were counted after 8 - 12 days. The cells were treated once after 24 hours with 1-50 µM of various GnRH analogues of Examples above or with 1 - 50 µM of GnRH-III, respectively. The percentages of inhibition obtained on MCF-7, MDA-MB-231, PC3 and Ishikawa cells, respectively, together with the dose of the active agent used are shown in Table VIII.

The test system of experiment [6] is Ishikawa. Described as above. In kind it is cell-based, human. The following applies: 50 µM. On the procedure: as §2
In experiment [7] the test system is MCF-7. The description is as above. Type of experiment: cell-based, human. As to conditions: treated once. As for the experimental part:
as §2

Experiment [8] has as its system PC3. The description is as above. The following applies: for % Inhibition of the colony formation: 50 µM; for inhibition of colony formation: within the dose range used (1-50 µM). Type of experiment: cell-based, human. As for the experimental part: as §2
In experiment [9] the test system is human tumour cell lines. In kind it is cell-based. The following applies: 30 µM. On the procedure:
(§3) After being treated with trypsin, 300.000 each of MCF-7, MDA-MB-231, PC3 or Ishikawa cells, respectively, were passed into Petri dishes of 10 cm in diameter. Starting from the day following the setting, the cells were treated with 1-50 µM of the GnRH analogue in the exponential growth phase. During the experiment lasting for 5 days, the cells were treated in every two days with the peptide hormone dissolved in the nutrient medium, then the cell count was determined on the sixth day.

In experiment [10] the test system is human tumour cell lines. Description: Inhibition of colony formation (Example 48), comparison with the control D-Trp^6-hGnRH. Type of experiment: cell-based. The following applies: data of Table VIII. As for the experimental part:
as §2
In these studies the D-Trp^6-hGnRH analogue (Sigma Co.) commonly used in the tumour therapy was employed as control.

Experiment [11] has as its system PC3. Description: In vitro inhibition of cell proliferation (Example 19). In kind it is cell-based, human. The following applies: 30 µM active substance, conjugate, treated once. On the procedure: (§4) The procedure of treatment was as follows. After trypsinization the cells, 400,000 cells of MCF-7, MDA-MB-231 human mammary carcinoma, PC3 human prostate carcinoma or Ishikawa human endometrium tumour each were passed into Petri dishes of 10 cm in diameter. Starting from the day following transfer, the cells were treated with the substances to be tested in solution prepared with the nutrient medium during the exponential growth phase. The cultures were treated with 1 to 50 µM (calculated for the total volume of the culture) or MI-1544 GnRH antagonist, MI-1892 chicken GnRH antagonist or SJ-1004 GnRH antagonist analogues as well as synthetic lamprey GnRH-III hormone every two days and the cell count was determined on the 7th day.

Experiment [12] relates to Ishikawa. The following applies: 30 µM active substance, conjugate, treated once. As for the experimental part: as §4, with “antagonist analogues as well as synthetic lamprey GnRH-III hormone every two days and the cell count was determined” left out
Experiment [13] relates to MDA-MB-231. As to conditions: MDA-MB-231; 30 µM active substance; conjugate, treated once; listed as 8. P-GFLG-1004. As for the experimental part: (§5) The procedure of treatment was as follows. After trypsinization the cells, 400,000 cells of MCF-7, MDA-MB-231 human mammary carcinoma, PC3 human prostate carcinoma or Ishikawa human endometrium tumour each were passed into Petri dishes of 10 cm in diameter. Starting from the day following transfer, the cells were treated with the substances to be tested in solution prepared with the nutrient medium during the exponential growth phase. […]

Experiment [14] relates to MCF-7. The following applies: MCF-7; 30 µM active substance; conjugate, treated once; cell count on 7th day; listed as 8. P-GFLG-1004. As for the experimental part: as §5
In experiment [15] the test system is MDA-MB-231. Type of experiment: cell-based, human. The following applies: MDA-MB-231 ER-negative; after 6 days' treatment; dose not stated. As for the experimental part: as §3
Experiment [16] has as its system MCF-7. In kind it is cell-based, human. The following applies: MCF-7 ER-positive; after 6 days' treatment; dose not stated. As for the experimental part:
as §3

As for `NCCCC[C@H](NC(=O)[C@H](Cc1c[nH]c2ccccc12)NC(=O)[C@H](Cc1c[nH]cn1)NC(=O)[C@@H]1CCC(=O)N1)C(=O)N[C@@H](Cc1c[nH]cn1)C(=O)N[C@@H](CC(=O)O)C(=O)N[C@@H](Cc1c[nH]c2ccccc12)C(=O)N[C@@H](CCCCN)C(=O)N1CCC[C@H]1C(=O)NCC(N)=O` [6. Lys^4-GnRH-III, Lys^4-GnRH-III], the “inhibition of colony formation” value is 35% in experiment [1] (concentration not given); “did not show any inhibition” in experiment [2] (concentration not given); 40% in [3] (concentration not given); 21% in experiment [4] (concentration not given); “did not influence” in the experiment on PC3 [8]. Further, the “% Inhibition of the colony formation” value in the experiment on MDA-MB-231 [5] (10 µM) is 18%; in the experiment on MDA-MB-231 [5] (50 µM) it was 35%; with MDA-MB-231 [5] (50 µM, listed as Example 31, 50 µM), 35-42%; in the experiment with Ishikawa [6], 21%; in the experiment with MCF-7 [7] (10 µM), 15%; in the experiment with MCF-7 [7] (50 µM), 40%. Further, the “% Inhibition of the colony formation” value in the experiment with PC3 [8] was found to be 0%. In the experiment with human tumour cell lines [9], the proliferation-inhibiting effect is listed as 27-31%. In the experiment on human tumour cell lines [10], the “inhibitory effect compared with the control D-Trp^6-hGnRH” value was “exceeded the inhibitory effect of control”.
In the case of `CC(=O)NCCCC[C@H](NC(=O)[C@H](Cc1c[nH]c2ccccc12)NC(=O)[C@H](Cc1c[nH]cn1)NC(=O)[C@@H]1CCC(=O)N1)C(=O)N[C@@H](Cc1c[nH]cn1)C(=O)N[C@@H](CC(=O)O)C(=O)N[C@@H](Cc1c[nH]c2ccccc12)C(=O)N[C@@H](CCCCN)C(=O)N1CCC[C@H]1C(=O)NCC(N)=O` [7. [Lys(ε-AC)]^4 GnRH-III, [Lys(î-Ac)]^4 -GnRH-III], the “% Inhibition of the colony formation” value with MDA-MB-231 [5] (10 µM) is on record as 31%; with MDA-MB-231 [5] (50 µM), 42%; in the experiment on MDA-MB-231 [5] (50 µM, listed as Example 32, 50 µM), 35-42%; with Ishikawa [6], 14%; in the experiment with MCF-7 [7] (10 µM) it was 40%; with MCF-7 [7] (50 µM), 52%. For the same compound, the “% Inhibition of the colony formation” value in the experiment with PC3 [8] came out at 0%. Also, the “inhibition of colony formation” value in the experiment on PC3 [8] is recorded as “did not influence”. The proliferation-inhibiting effect in the experiment with human tumour cell lines [9] is listed as 27-31%. Further, in the experiment on human tumour cell lines [10], the “inhibitory effect compared with the control D-Trp^6-hGnRH” value is recorded as “exceeded the inhibitory effect of control”.
As for “D-Phe^2,D-Trp^3,{D-Lys[n-poly(N-vinylpyrrolidone-co-maleic acid)-Gly-Phe-Leu-Gly]}^6,-GnRH [P-GFLG-1004]”, the “% Inhibition of cell division (proliferation)” value in the experiment with PC3 [11] turned out to be 35%; in the experiment with Ishikawa [12] it was 20%; with MDA-MB-231 [13] it was 68%; in the experiment with MCF-7 [14], 63%. In addition, the “% Inhibition of colony formation” value in [1] (10 µM) is listed as 62%; in experiment [1] (50 µM, listed as 8. P-GFLG-1004, 50 µM), 92%; in [2] (30 µM), 100%; in experiment [2] (50 µM), 100%; in experiment [3] (10 µM (active substance)) it was 75%; in experiment [3] (50 µM (active substance), listed as 8. P-GFLG-1004, 50 µM) it was 95%. The “% Inhibition of colony formation” value in [4] (10 µM) is listed as 3%; in [4] (50 µM), 46%. The “% Inhibition of the colony formation” value in the experiment on PC3 [8] turned out to be 31%.
In the case of D-Phe^6-GnRH(1-9)-ethylamide [Ovurelin], in the experiment with MDA-MB-231 [15], the “inhibition of cell proliferation” value is given as 25-30%. Also, the “inhibition (change in the cell count)” value with MCF-7 [16] is on record as 5-15%.
The matching figures for “[D-Ser(tBu)]^6,desGly^10-hGnRH(1-9)EA [Buserelin]”: 25-30% and 5-15%.

These data come from patent EP0728012B1, “NOVEL GnRH ANALOGUES WITH ANTITUMOUR EFFECTS AND PHARMACEUTICAL COMPOSITIONS THEREOF” (Lovas, Sandor, priority 1994, dated 1996).
